Test system: human embryonic stem cell line H1
Test: Real-time PCR gene expression, ascorbic acid at stages 3-5 (Example 11)
Assay type: cell-based
Settings: at stages 4-5
Procedure: Cells of the human embryonic stem cell line H1 at various passages (passage 40 to passage 52) were seeded as single cells at a density of 100,000 cells/cm^2 on MATRIGEL™ (1:30 dilution) coated dishes in mTesr™1 media and 10 μM of Y27632. Forty eight hours post seeding, cultures were differentiated into pancreatic endocrine lineage as follows: • a. Stage 1 (Definitive Endoderm (DE)−3 days): Prior to start of DE, the cultures were washed and incubated with incomplete PBS (no Mg or Ca) for 30 seconds followed by addition of the stage 1 media. Human embryonic stem cells cultured as single cells on MATRIGEL™-coated dishes were treated with MCDB-131 medium supplemented with 0.1% fatty acid-free BSA, 0.0012 g/ml sodium bicarbonate, 1× GLUTAMAX™, 5 mM D-Glucose, 100 ng/ml GDF8, and 1 μM MCX compound (GSK3B inhibitor) for one day. Cells were then treated with MCDB-131 medium supplemented with 0.1% fatty acid-free BSA, 0.0012 g/ml sodium bicarbonate, 1× GLUTAMAX™, 5 mM glucose, 100 ng/ml GDF8, and 100 nM MCX compound for day two, followed by an additional day in MCDB-131 medium supplemented with 0.1% fatty acid-free BSA, 0.0012 g/ml sodium bicarbonate, 1× GLUTAMAX™, 5 mM Glucose, and 100 ng/ml GDF8. • b. Stage 2 (Primitive gut tube−2 days): Stage 1 cells were treated with MCDB-131 medium supplemented with 0.1% fatty acid-free BSA, 0.0012 g/ml sodium bicarbonate, 1× GLUTAMAX™, 5 mM D-Glucose, and 25 ng/ml FGF7 for two days. • c. Stage 3 (Foregut−2 days): Stage 2 cells were treated with MCDB-131 medium supplemented with 1:200 dilution of ITS-X, 2.5 mM Glucose, 1× GLUTAMAX™, 0.0015 g/ml sodium bicarbonate, 2% fatty acid-free BSA, 10 ng/ml Activin A, 25 ng/ml FGF7, 0.25 μM SANT-1, 1 μM RA, 200 nM TPB (PKC activator), 100 nM LDN-193189 (BMP receptor inhibitor) for one day. Cells were then treated with MCDB-131 medium supplemented with 1:200 dilution of ITS-X, 2.5 mM Glucose, 1× GLUTAMAX™, 0.0015 g/ml sodium bicarbonate, 2% fatty acid-free BSA, 10 ng/ml Activin A, 25 ng/ml FGF7, 0.25 μM SANT-1, 1 μM RA, 200 nM TPB (PKC activator), 10 nM LDN-193189 for an additional day. […]

[1] = ascorbic acid added at stage 3 or at stages 3 and 4

For `O=C1O[C@H]([C@@H](O)CO)C(O)=C1O` [ascorbic acid], the “expression of pancreatic endoderm markers PDX-1 and NKX6.1” value (0.25 mM ascorbic acid) was “not significantly altered”, the expression of insulin [1] was “increasing” and the “expression of somatostatin and glucagon” value [1] was “significantly decreased”.
